Patent publication US6737383B1, “Herbicidal oxadiazolidines” (priority 1999, dated 2004)

Tests used:
surinam grass = experiment: Test B pre/postemergence surinam grass; type: in vivo, Brachiaria decumbens
Summary of the method: (§1)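 Test chemicals in a non-phytotoxic solvent mixture with surfactant were sprayed preemergence onto planted seeds and postemergence onto plants 2 to 18 cm tall (1- to 4-leaf stage). After twelve to sixteen days in a greenhouse, injury was visually rated against untreated controls from 0 (no effect) to 10 (complete control).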

morningglory = experiment: Test B pre/postemergence morningglory; type: in vivo, Ipomoea hederacea
Summary of the method: as §1

pigweed = experiment: Test B pre/postemergence pigweed; type: in vivo, Amaranthus retroflexus
Summary of the method: as §1

corn = experiment: Test B pre/postemergence corn; type: in vivo, Zea mays
Summary of the method: as §1

sugar beet = experiment: Test B pre/postemergence sugar beet; type: in vivo, Beta vulgaris
Summary of the method: as §1

wheat = experiment: Test B pre/postemergence wheat; type: in vivo, Triticum aestivum
Summary of the method: as §1

cocklebur = experiment: Test B pre/postemergence cocklebur; type: in vivo, Xanthium strumarium
Summary of the method: as §1

rape = experiment: Test B pre/postemergence rape; type: in vivo, Brassica napus
Summary of the method: as §1

rice = experiment: Test B flood test rice; type: in vivo, Oryza sativa
Summary of the method: (§2)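 Each value is a visual injury score relative to controls, with 10 meaning complete control and 0 no effect. Evaluation took place twelve to sixteen days after the 2-leaf-stage plants were treated and kept in the greenhouse.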

smallflower flatsedge = experiment: Test B flood test smallflower flatsedge; type: in vivo, Cyperus difformis
Summary of the method: as §2

crabgrass = experiment: Test B pre/postemergence crabgrass; type: in vivo, Digitaria sanguinalis
Summary of the method: as §1

bamyardgrass = experiment: Test B flood test barnyardgrass; type: in vivo, Echinochloa crus-galli
Summary of the method: as §2

wild oat = experiment: Test B pre/postemergence wild oat; type: in vivo, Avena fatua
Summary of the method: as §1

purple nutsedge = experiment: Test B pre/postemergence purple nutsedge; type: in vivo, Cyperus rotundus
Summary of the method: as §1

duck salad = experiment: Test B flood test duck salad; type: in vivo, Heteranthera limosa
Summary of the method: as §2

giant foxtail = experiment: Test B pre/postemergence giant foxtail; type: in vivo, Setaria faberii
Summary of the method: as §1

[1] = Postemergence, Rate 31 g/ha, visual rating, scale 0 to 10 (0 no effect, 10 complete control)
[2] = Preemergence, Rate 31 g/ha, visual rating, scale 0 to 10 (0 no effect, 10 complete control)
[3] = Preemergence, Rate 62 g/ha, scale of 0 to 10 where 0 is no effect and 10 is complete control
[4] = Preemergence, Rate 250 g/ha, scale of 0 to 10 where 0 is no effect and 10 is complete control
[5] = Rate 62 g/ha, Postemergence, scale 0 to 10 (0 no effect, 10 complete control)
[6] = Rate 125 g/ha, Postemergence, scale of 0 to 10 where 0 is no effect and 10 is complete control
[7] = Rate 125 g/ha, Preemergence, scale of 0 to 10 where 0 is no effect and 10 is complete control
[8] = Rate 250 g/ha, Postemergence, scale of 0 to 10 where 0 is no effect and 10 is complete control
[9] = Rate 31 g/ha, Pre-emergence section (flood test species), scale 0 to 10
[10] = Rate 62 g/ha, headed Pre-emergence (flood test species), scale 0 to 10 (0 no effect, 10 complete control)
[11] = Rate 125 g/ha, Pre-emergence, flood test species, scale 0 to 10 where 0 is no effect and 10 is complete control
[12] = Rate 250 g/ha, Pre-emergence, flood-test species, scale 0 to 10, 0 is no effect, 10 is complete control

For CCOCn1c(=O)on(C(=O)N(c2ccc(F)cc2)C(C)C)c1=O [Compound 295], the “B. signalgrass plant response rating” value (surinam grass; [1]) was 0, the “B. signalgrass plant response rating” value (surinam grass; [2]) was 3 and the “B. signalgrass plant response rating” value (surinam grass; [3]) was 6. The “B. signalgrass plant response rating” value (surinam grass; [4]) was 8, the “B. signalgrass plant response rating” value (surinam grass; [5]) was 0 and the “B. signalgrass plant response rating” value (surinam grass; [6]) was 0. For the same compound, the “B. signalgrass plant response rating” value (surinam grass; [7]) was 6, the “Plant response rating, B. signalgrass” value (surinam grass; [8]) was 5 and the “Morningglory plant response rating” value (morningglory; [1]) was 1. For the same compound, the “Morningglory plant response rating” value (morningglory; [2]) was 0, the “Morningglory plant response rating” value (morningglory; [3]) was 0 and the “Morningglory plant response rating” value (morningglory; [4]) was 0. The “Morningglory plant response rating” value (morningglory; [5]) was 1, the “Morningglory plant response rating” value (morningglory; [6]) was 5 and the “Morningglory plant response rating” value (morningglory; [7]) was 0. The “Plant response rating, Morningglory” value (morningglory; [8]) was 7, the “Redroot pigweed plant response rating” value (pigweed; [1]) was 0 and the “Redroot pigweed plant response rating” value (pigweed; [2]) was 0. For the same compound, the “Redroot pigweed plant response rating” value (pigweed; [3]) was 3, the “Redroot pigweed plant response rating” value (pigweed; [4]) was 6 and the “Redroot pigweed plant response rating” value (pigweed; [5]) was 0. For the same compound, the “Redroot pigweed plant response rating” value (pigweed; [6]) was 5, the “Redroot pigweed plant response rating” value (pigweed; [7]) was 6 and the “Plant response rating, Redroot pigweed” value (pigweed; [8]) was 7. The “Corn plant response rating” value (corn; [1]) was 0, the “Corn plant response rating” value (corn; [2]) was 0 and the “Corn plant response rating” value (corn; [3]) was 0. For the same compound, the “Corn plant response rating” value (corn; [4]) was 0, the “Corn plant response rating” value (corn; [5]) was 0 and the “Corn plant response rating” value (corn; [6]) was 0. The “Corn plant response rating” value (corn; [7]) was 0, the “Plant response rating, Corn” value (corn; [8]) was 0 and the “Sugarbeets plant response rating” value (sugar beet; [1]) was 0. For the same compound, the “Sugarbeets plant response rating” value (sugar beet; [2]) was 0, the “Sugarbeets plant response rating” value (sugar beet; [3]) was 0 and the “Sugarbeets plant response rating” value (sugar beet; [4]) was 3. For the same compound, the “Sugarbeets plant response rating” value (sugar beet; [5]) was 0, the “Sugarbeets plant response rating” value (sugar beet; [6]) was 0 and the “Sugarbeets plant response rating” value (sugar beet; [7]) was 0. The “Plant response rating, Sugarbeets” value (sugar beet; [8]) was 0, the “Wheat plant response rating” value (wheat; [1]) was 0 and the “Wheat plant response rating” value (wheat; [2]) was 0. For the same compound, the “Wheat plant response rating” value (wheat; [3]) was 0, the “Wheat plant response rating” value (wheat; [4]) was 6 and the “Wheat plant response rating” value (wheat; [5]) was 0. The “Wheat plant response rating” value (wheat; [6]) was 0, the “Wheat plant response rating” value (wheat; [7]) was 3 and the “Plant response rating, Wheat” value (wheat; [8]) was 3. For the same compound, the “Cocklebur plant response rating” value (cocklebur; [1]) was 0, the “Cocklebur plant response rating” value (cocklebur; [2]) was 0 and the “Cocklebur plant response rating” value (cocklebur; [3]) was 0. The “Cocklebur plant response rating” value (cocklebur; [4]) was 0, the “Cocklebur plant response rating” value (cocklebur; [5]) was 0 and the “Cocklebur plant response rating” value (cocklebur; [6]) was 0. The “Cocklebur plant response rating” value (cocklebur; [7]) was 0, the “Plant response rating, Cocklebur” value (cocklebur; [8]) was 0 and the “Rape plant response rating” value (rape; [1]) was 0. For the same compound, the “Rape plant response rating” value (rape; [2]) was 0, the “Rape plant response rating” value (rape; [3]) was 0 and the “Rape plant response rating” value (rape; [4]) was 10. For the same compound, the “Rape plant response rating” value (rape; [5]) was 0, the “Rape plant response rating” value (rape; [6]) was 0 and the “Rape plant response rating” value (rape; [7]) was 2. The “Plant response rating, Rape” value (rape; [8]) was 3, the “Rice plant response rating” value (rice; [9]) was 0 and the “Rice plant response rating” value (rice; [10]) was 0. The “Rice plant response rating” value (rice; [11]) was 0, the “Rice plant response rating” value (rice; [12]) was 0 and the “S. Flatsedge plant response rating” value (smallflower flatsedge; [9]) was 0. For the same compound, the “S. Flatsedge plant response rating” value (smallflower flatsedge; [10]) was 0, the “S. Flatsedge plant response rating” value (smallflower flatsedge; [11]) was 0 and the “S. Flatsedge plant response rating” value (smallflower flatsedge; [12]) was 0. For the same compound, the “Crabgrass plant response rating” value (crabgrass; [1]) was 0, the “Crabgrass plant response rating” value (crabgrass; [2]) was 2 and the “Crabgrass plant response rating” value (crabgrass; [3]) was 2. For the same compound, the “Crabgrass plant response rating” value (crabgrass; [4]) was 7, the “Crabgrass plant response rating” value (crabgrass; [5]) was 0 and the “Crabgrass plant response rating” value (crabgrass; [6]) was 3. For the same compound, the “Crabgrass plant response rating” value (crabgrass; [7]) was 7, the “Plant response rating, Crabgrass” value (crabgrass; [8]) was 8 and the “Barnyardgrass plant response rating” value (bamyardgrass; [9]) was 0. The “Barnyardgrass plant response rating” value (bamyardgrass; [10]) was 0, the “Barnyardgrass plant response rating” value (bamyardgrass; [11]) was 0 and the “Barnyardgrass plant response rating” value (bamyardgrass; [12]) was 0. For the same compound, the “Wild oats plant response rating” value (wild oat; [1]) was 0, the “Wild oats plant response rating” value (wild oat; [2]) was 0 and the “Wild oats plant response rating” value (wild oat; [3]) was 2. For the same compound, the “Wild oats plant response rating” value (wild oat; [4]) was 9, the “Wild oats plant response rating” value (wild oat; [5]) was 0 and the “Wild oats plant response rating” value (wild oat; [6]) was 0. The “Plant response rating, Wild oats” value (wild oat; [8]) was 2, the “Nutsedge plant response rating” value (purple nutsedge; [1]) was 0 and the “Nutsedge plant response rating” value (purple nutsedge; [2]) was 0. For the same compound, the “Nutsedge plant response rating” value (purple nutsedge; [3]) was 0, the “Nutsedge plant response rating” value (purple nutsedge; [4]) was 0 and the “Nutsedge plant response rating” value (purple nutsedge; [5]) was 0. For the same compound, the “Nutsedge plant response rating” value (purple nutsedge; [6]) was 0, the “Nutsedge plant response rating” value (purple nutsedge; [7]) was 0 and the “Plant response rating, Nutsedge” value (purple nutsedge; [8]) was 0. For the same compound, the “Ducksalad plant response rating” value (duck salad; [9]) was 0, the “Ducksalad plant response rating” value (duck salad; [10]) was 0 and the “Ducksalad plant response rating” value (duck salad; [11]) was 0. For the same compound, the “Ducksalad plant response rating” value (duck salad; [12]) was 0, the “Giant foxtail plant response rating” value (giant foxtail; [1]) was 0 and the “Giant foxtail plant response rating” value (giant foxtail; [2]) was 8. For the same compound, the “Giant foxtail plant response rating” value (giant foxtail; [3]) was 8, the “Giant foxtail plant response rating” value (giant foxtail; [4]) was 10 and the “Giant foxtail plant response rating” value (giant foxtail; [5]) was 0. For the same compound, the “Giant foxtail plant response rating” value (giant foxtail; [6]) was 6, the “Giant foxtail plant response rating” value (giant foxtail; [7]) was 10 and the “Plant response rating, Giant foxtail” value (giant foxtail; [8]) was 9.
